The values that follow come from ChEMBL document CHEMBL1125951, “Synthesis and dopaminergic activity of the enantiomers of 6-methyl-4,5a,6,7,8-hexahydrothiazolo[4,5-f]quinolin-2-amine (PD 128483)” (Bioorg Med Chem Lett, 1991).

One test concerns the target D(2) dopamine receptor (Rattus norvegicus, UniProt P61169). The test is described as follows: In vitro binding affinity to Dopamine receptor D2 in rat striatal membranes using D2 antagonist [3H]spiperone. It counts as cell membranes, Striatum, Membrane.
In test [1] the target is Dopamine receptors; D1 & D2 (Rattus norvegicus, UniProt P18901+P61169). The experiment in a line: In vitro binding affinity to Dopamine receptor D1/Dopamine receptor D2 in rat striatal membranes using [3H]N-propylnorapomorphine. It counts as cell membranes, Striatum, Membrane.
For test [2], the system named is Rattus norvegicus. The test is described as follows: Compound was evaluated for reversal of the increase in rat striatum DOPA accumulation produced by the pretreatment with GBL (750 mg/Kg, ip) and NSD 1015 (100 mg/Kg, ip). It is filed as functional.
For test [3], the system named is Rattus norvegicus. The experiment in a line: Compound was evaluated for inhibition of the spontaneous firing of substantia nigra DA neurons in anesthetized rats at 2.5 mg/Kg (ip). It is filed as functional.
The target of the next test is D(1A) dopamine receptor (Rattus norvegicus, UniProt P18901). The experiment in a line: In vitro binding affinity to Dopamine receptor D1 in rat striatal membranes using D1 antagonist [3H]SCH-23390. It counts as cell membranes, Striatum, Membrane.
D(1A) dopamine receptor, sequence (P18901 whole entry): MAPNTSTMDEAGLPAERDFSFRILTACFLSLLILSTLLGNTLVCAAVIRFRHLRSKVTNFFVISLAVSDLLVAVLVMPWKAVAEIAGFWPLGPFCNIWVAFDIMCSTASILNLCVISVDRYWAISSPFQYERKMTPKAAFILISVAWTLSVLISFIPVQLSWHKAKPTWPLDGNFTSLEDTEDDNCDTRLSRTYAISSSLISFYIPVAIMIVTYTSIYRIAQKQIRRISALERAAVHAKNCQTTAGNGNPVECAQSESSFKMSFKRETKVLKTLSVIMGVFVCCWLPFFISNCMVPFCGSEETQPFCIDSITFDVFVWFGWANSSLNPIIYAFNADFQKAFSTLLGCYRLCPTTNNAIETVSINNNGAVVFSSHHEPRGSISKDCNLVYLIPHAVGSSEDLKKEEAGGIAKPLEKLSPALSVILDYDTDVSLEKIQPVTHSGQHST
In test [4] the test system is Rattus norvegicus. The test is described as follows: Compound was evaluated for inhibition of the spontaneous firing of substantia nigra DA neurons in anesthetized rats at 0.25 mg/Kg (ip). It is filed as functional.
Test [5] concerns Rattus norvegicus. The experiment in a line: Compound (2.0 mg/kg ip.) was evaluated for reversal of the increase in rat striatum DOPA accumulation produced by the pretreatment with GBL (750 mg/Kg, ip) and NSD 1015 (2 mg/Kg, ip). It is filed as functional.
The test system of test [6] is Rattus norvegicus. The test is described as follows: Compound was evaluated for reversal of the increase in rat striatum DOPA accumulation produced by the pretreatment with GBL (750 mg/kg, ip) and NSD 1015 (100 mg/Kg, ip). It counts as functional.

D(2) dopamine receptor, sequence (P61169 whole entry): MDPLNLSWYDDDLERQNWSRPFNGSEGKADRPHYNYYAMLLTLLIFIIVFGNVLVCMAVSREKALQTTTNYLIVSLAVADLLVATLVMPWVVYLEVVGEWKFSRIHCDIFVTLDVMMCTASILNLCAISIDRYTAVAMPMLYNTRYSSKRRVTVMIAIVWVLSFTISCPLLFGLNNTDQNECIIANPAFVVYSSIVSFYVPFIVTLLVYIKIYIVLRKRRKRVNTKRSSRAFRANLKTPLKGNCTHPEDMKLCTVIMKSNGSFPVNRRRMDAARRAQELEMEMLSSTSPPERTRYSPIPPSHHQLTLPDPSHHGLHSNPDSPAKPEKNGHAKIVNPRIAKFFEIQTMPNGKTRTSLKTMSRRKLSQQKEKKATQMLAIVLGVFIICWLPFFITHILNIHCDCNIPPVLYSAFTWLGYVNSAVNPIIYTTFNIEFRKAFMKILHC

As to `CN1CCC=C2c3nc(N)sc3CC[C@H]21`, the IC50 was 376 nM at D(2) dopamine receptor, 127 nM in test [1] and above 20000 nM on D(1A) dopamine receptor. Moreover, the ED50 with Rattus norvegicus [2] amounted to 0.5 mg/kg. This compound showed an inhibition in vivo at 2.5 mg/kg with Rattus norvegicus [3] of 99%.
Compound `CN1CCc2cccc3c2[C@H]1Cc1ccc(O)c(O)c1-3` [APOMORPHINE] displayed an inhibition in vivo at 0.25 mg/kg in the test with Rattus norvegicus [4] of 100%. Also, the Inhibition in the test with Rattus norvegicus [5] stood at 100%.
Consider `CN1CCC=C2c3nc(N)sc3CC[C@@H]21`, for which the IC50 was 768 nM at D(2) dopamine receptor, 464 nM in test [1] and above 20000 nM on D(1A) dopamine receptor. Further, the ED50 in the test on Rattus norvegicus [6] is above 10 mg/kg. Further, testing at 2.5 mg/kg in the test with Rattus norvegicus [3] gave an inhibition in vivo of 67%.
Take `CCCN1CCC=C2c3nc(N)sc3CC[C@@H]21`: the ED50 in the test on Rattus norvegicus [2] was above 10 mg/kg. For the same compound, in the test with Rattus norvegicus [3], the inhibition in vivo at 2.5 mg/kg came to 22%. Further, on D(1A) dopamine receptor, the IC50 is above 15000 nM.
Consider `CCCN1CCC=C2c3nc(N)sc3CC[C@H]21`, for which the ED50 in the test with Rattus norvegicus [2] was 4.8 mg/kg. In the test with Rattus norvegicus [3], this compound gave an inhibition in vivo at 2.5 mg/kg of 91%. For the same compound, at D(1A) dopamine receptor, the IC50 was above 15000 nM.

By IC50 is commonly meant the concentration needed to halve the response being measured. High values mean weaker potency in that assay, low ones greater potency in that assay. One may read the ED50 as the midpoint of the dose-response relation. A word on the inhibition in vivo: it is the change of the read-out against control, counted positive when it falls. High values mean strong suppression, low ones little suppression. For orientation: Inhibition means the percentage by which the read-out fell short of the control.
